Measured values taken from patent US20220040150A1, “I[…] ADMI[…] FOR DMT-ASSISTED PSYCHOTHERAPY” (Universitatsspital Basel, priority 2020, published 2022).
Read-outs that look alike come from different tables or passages of the source.

How the values were obtained:
[1] = 25 mg (0.3 mg/kg) bolus over 30 seconds; cited from earlier work
[2] = target: T1, monoamine oxidase (MAO) A (Homo sapiens, UniProt P21397); conditions: cited from earlier work
T1 sequence (P21397 1-527): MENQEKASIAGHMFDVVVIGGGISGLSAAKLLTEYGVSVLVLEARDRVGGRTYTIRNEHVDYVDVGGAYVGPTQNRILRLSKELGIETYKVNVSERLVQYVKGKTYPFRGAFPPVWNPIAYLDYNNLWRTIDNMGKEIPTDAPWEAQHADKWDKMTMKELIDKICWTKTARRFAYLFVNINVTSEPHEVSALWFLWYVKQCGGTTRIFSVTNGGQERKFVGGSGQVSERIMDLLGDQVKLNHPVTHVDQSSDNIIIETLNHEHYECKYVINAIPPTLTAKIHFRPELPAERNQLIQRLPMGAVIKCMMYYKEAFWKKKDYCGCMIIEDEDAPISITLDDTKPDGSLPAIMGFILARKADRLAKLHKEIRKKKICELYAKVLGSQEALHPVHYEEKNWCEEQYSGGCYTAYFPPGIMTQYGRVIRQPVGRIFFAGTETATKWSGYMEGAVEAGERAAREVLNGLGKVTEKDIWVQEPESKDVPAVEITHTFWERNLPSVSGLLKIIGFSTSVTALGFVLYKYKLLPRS

[3] = tested on: experienced hallucinogen-using volunteers; conditions: 0.3 mg/kg iv at half-hour intervals 4 times in a morning; cited from earlier work
[4] = cited from earlier work
healthy volunteers = conditions: cited from earlier work
[5] = target: serotonin 5-HT2A receptor (Homo sapiens, UniProt P28223); conditions: similar to LSD and psilocybin; cited from earlier work
[6] = tested on: healthy subjects with previous hallucinogen experience; conditions: cited from earlier work
healthy subjects = experiment: Example 1 clinical study: blood pressure and heart rate; conditions: perfusion with or without bolus
5-HT1A receptor = target: T2, 5-HT1A receptor (Homo sapiens, UniProt P08908); conditions: sub-hallucinogenic dose of 0.1 mg/kg DMT, twelve subjects; cited from earlier work
T2 construct: host or cells: human volunteers (in vivo)
T2 sequence (P08908 1-422): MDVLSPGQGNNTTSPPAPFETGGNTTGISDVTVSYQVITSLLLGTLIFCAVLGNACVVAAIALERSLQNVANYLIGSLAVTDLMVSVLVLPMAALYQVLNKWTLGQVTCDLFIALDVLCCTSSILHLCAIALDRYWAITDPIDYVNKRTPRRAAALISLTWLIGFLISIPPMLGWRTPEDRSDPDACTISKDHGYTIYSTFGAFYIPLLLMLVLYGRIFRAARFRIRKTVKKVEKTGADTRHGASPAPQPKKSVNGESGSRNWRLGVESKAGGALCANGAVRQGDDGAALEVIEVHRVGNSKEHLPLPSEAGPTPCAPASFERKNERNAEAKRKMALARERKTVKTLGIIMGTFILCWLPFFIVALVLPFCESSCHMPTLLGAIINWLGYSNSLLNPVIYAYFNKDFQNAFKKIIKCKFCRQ

[7] = tested on: healthy subjects with previous hallucinogen experience; conditions: cited from earlier work; remark: listed apart in the source
serotonin transporter = serotonin transporter (Homo sapiens, UniProt P31645); conditions: in contrast to LSD; cited from earlier work
serotonin transporter, sequence (P31645 whole entry): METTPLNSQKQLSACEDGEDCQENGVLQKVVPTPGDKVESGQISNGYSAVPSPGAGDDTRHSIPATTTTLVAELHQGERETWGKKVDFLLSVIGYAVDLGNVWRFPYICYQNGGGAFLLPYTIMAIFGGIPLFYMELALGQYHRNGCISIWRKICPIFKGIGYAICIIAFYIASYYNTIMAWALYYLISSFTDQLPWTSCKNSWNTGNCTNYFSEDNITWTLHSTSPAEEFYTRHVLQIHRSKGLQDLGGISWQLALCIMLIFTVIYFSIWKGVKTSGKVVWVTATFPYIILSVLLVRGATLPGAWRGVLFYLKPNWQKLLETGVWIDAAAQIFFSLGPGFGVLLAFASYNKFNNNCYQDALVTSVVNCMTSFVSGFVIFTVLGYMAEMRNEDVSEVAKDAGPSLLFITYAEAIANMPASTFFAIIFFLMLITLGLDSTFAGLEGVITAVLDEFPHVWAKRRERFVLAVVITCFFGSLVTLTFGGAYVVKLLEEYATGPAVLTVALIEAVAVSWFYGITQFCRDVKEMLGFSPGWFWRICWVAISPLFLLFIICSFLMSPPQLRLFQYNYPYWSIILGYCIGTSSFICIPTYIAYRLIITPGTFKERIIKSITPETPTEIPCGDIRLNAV

serotonin 5-HT2A receptor, sequence (P28223 whole entry): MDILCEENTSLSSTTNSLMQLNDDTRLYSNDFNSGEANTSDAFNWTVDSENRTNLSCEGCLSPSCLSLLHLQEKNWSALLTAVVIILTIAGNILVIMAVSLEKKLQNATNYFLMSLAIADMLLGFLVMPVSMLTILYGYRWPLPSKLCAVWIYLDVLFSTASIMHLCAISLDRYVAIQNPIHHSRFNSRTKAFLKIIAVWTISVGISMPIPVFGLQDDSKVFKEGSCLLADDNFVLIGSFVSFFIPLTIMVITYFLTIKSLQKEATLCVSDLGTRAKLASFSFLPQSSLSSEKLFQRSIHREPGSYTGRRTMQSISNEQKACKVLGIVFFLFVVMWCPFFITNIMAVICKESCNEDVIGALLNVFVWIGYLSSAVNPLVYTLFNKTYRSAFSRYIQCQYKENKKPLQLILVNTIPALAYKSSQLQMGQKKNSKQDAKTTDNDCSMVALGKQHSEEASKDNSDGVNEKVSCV

CN(C)CCc1c[nH]c2ccccc12 [DMT, N,N-dimethyltryptamine]
effect site concentration (simulated) [1]: over 100 ng/mL
initial plasma concentration spike (simulated) [1]: over 200 ng/mL
metabolism by monoamine oxidase (MAO) A [2]: rapidly metabolized
Tolerance to the subjective effects of DMT [3]: did not occur
Plasma levels of DMT ([4]; 10 minutes before start of second dose, 110 minutes after stopping the first infusion): 5 ± 3 ng/mL
Mean plasma levels of DMT ([4]; high dose: bolus 0.3 mg/kg, then infusion 0.02 mg/kg/min): 60 ± 28 ng/mL
Mean plasma levels of DMT ([4]; low dose: bolus 0.2 mg/kg over 5 minutes, then infusion 0.015 mg/kg/min over 84 minutes): 43 ± 26 ng/mL
time within which subjective effects subsided (healthy volunteers; after stopping infusion): ≤ 20 min
subjects who stopped after the first DMT dose due to adverse responses (healthy volunteers; among the 15 subjects): 3
persons reporting visual hallucinations (healthy volunteers; high dose): all participants
time for adverse effects to vanish from stopping the infusion (healthy volunteers; in vivo): within a few minutes
persons reporting visual hallucinations (healthy volunteers; low dose, 15 healthy volunteers): seven
lasting complaints at interviews (healthy volunteers; seven days and 12 months after the experiments): no lasting complaints
subjects reporting tiredness and headache in the evening of the experiment (healthy volunteers; subjects who received DMT): 10 out of 13
interaction with the serotonin 5-HT2A receptor [5]: interacts
Average heart rate ([6]; at 2 minutes): 100 beats/min
mean arterial blood pressure ([6]; at 2 minutes): 108 mm Hg
blood pressure, heart rate, pupil size, body core temperature, blood levels of ACTH, cortisol, PRL, β-endorphin and growth hormone ([6]; iv bolus): increased
effect on blood pressure and heart rate (healthy subjects): only moderately and transiently increased blood pressure
enhancement of DMT effects by pindolol pre-treatment (5-HT1A receptor): two to three times
threshold dose for hallucinogenic effects ([7]; iv bolus): 0.2 mg/kg
time to peak of effects after injection ([7]; iv bolus): ≤ 2 min
time within which effects resolved ([7]; iv bolus): 20 to 30 min
hallucinogenic effect ([7]; lower doses (0.05, 0.1 mg/kg) iv bolus): not hallucinogenic
hallucinogenic effect ([7]; two higher doses of 0.2 and 0.4 mg/kg iv bolus): fully hallucinogenic
interaction with the serotonin transporter (serotonin transporter): interacts
